Values after ≈ are worked out from the molar mass of the structure shown.
Columns and labels:
[1] = tested on: Candida albicans; test: MIC by two-fold dilution, Candida albicans; format: cell-based
Text: (§1) A number of compounds with antimycotic and/or fungicidal properties, which are useful in pharmaceutical compositions, are currently known. These include the commercially successful Miconazole having the formula II [drawing 2] Miconazole has a structure chemically similar to the 1H-imidazole derivative compounds of the invention. Miconazole is effective against a number of yeasts, dermatophytes and fungi. This effectiveness can be measured by culturing these microorganisms in vitro and applying a preparation containing the antimycotic compound, Miconazole. The results of this type of in vitro experiment is expressed in terms of the Minimum Inhibitory Concentration (MIC), i.e. the minimum concentration which inhibits the growth of the microorganism. For example, the MIC for Miconazole against a particular Candida albicans strain is found to be 10.7 micrograms/milliliter. The effectiveness of Miconazole as an antimycotic compound is measured in vivo by applying a suspension containing the drug to the skin of a number of animals and measuring the proportion of animals on which growth of the microorganism is inhibited as a function of time. Typically, after 25 days, about 1/4 of the animals were cured, when treated with a cream containing 2 % by weight Miconazole. Of course, any pharmaceutical preparation for treating a disease in a human must satisfy certain toxicity requirements. […] Toxicity tests have been performed on the IH-imidazole derivative compounds of the invention and on Miconazole and other known compounds having antimycotic properties. In toxicity tests the LD50 (the dose at which 50 % mortality occurs) is measured.
(§2) Minimum Inhibitory Concentrations (MICS) of Sertaconazole and Miconazole against 107 yeasts, 47 dermatophytes and 4 fungi were determined by a two-fold dilution method.

[2] = tested on: Candida s.p.; test: MIC by two-fold dilution, Candida s.p.; format: cell-based
Description: as §2

[3] = tested on: Malasezzia furfur; test: MIC by two-fold dilution, Malasezzia furfur; format: cell-based; settings: 20 strains
Description: as §2

[4] = tested on: Trichophyton rubrus; test: MIC by two-fold dilution, Trichophyton rubrus; format: cell-based; settings: 10 strains, read-out: Minimum Inhibitory Concentration
Description: as §2

[5] = tested on: Microsporum canis; test: MIC by two-fold dilution, Microsporum canis; format: cell-based; settings: 4 strains, read-out: Minimum Inhibitory Concentration
Description: as §2

[6] = tested on: Dermatophytes, Others; test: MIC by two-fold dilution, other dermatophytes; format: cell-based; settings: 3 strains; read-out: Minimum Inhibitory Concentration
Description: as §2

[7] = tested on: Scopulariopsis brevi-caulis; test: MIC by two-fold dilution, Scopulariopsis brevicaulis; format: cell-based
Description: as §2

[8] = tested on: Gram-positive germs; test: MIC by two-fold dilution, Gram-positive germs; format: cell-based; settings: 21 strains; read-out: Minimum Inhibitory Concentration
[9] = tested on: Trichophyton mcntagrophytes; test: Dermal infection in albino female guinea pigs by Trichophyton mentagrophytes; format: in vivo, guinea pig; settings: for % microbiological healing / Negative Cultures to Total Cultures: 2% cream
Text: as §1
Dermal infection in albino female guinea pigs by Trichophyton mcntagrophytes has been studied. Animals were distributed in three groups: a) a control group of infected untreated animals; b) a scrtaconazole group of infected and treated animals; and c) a miconazole group of infected and treated animals. Animals were depleted and a 0.4 ml suspension of the microorganism was applied on the depleted area. Treatment with each of the test drugs was made by application of 1 g of 2% cream on the depleted area on the 4th, 5th and 6th day after infection.

[10] = Acute toxicity (LD50) in mouse, three administration routes; settings: in vivo, males
Text: as §1
(§3) Toxicity of Sertaconazole, Microazole and Martin's compounds 1, 2 and 3, as shown below, has been tested by standard methods. Both acute toxicity, subacute toxicity and chronic toxicity were studied
(§4) Oral, intraperitoneal and subcutaneous acute toxicity of sertaconazole and miconazole have been investigated. LD50 in mouse and rat, male and female, were measured.

[11] = Acute toxicity (LD50) in rat, three administration routes; settings: in vivo, males
Description: as §3, §4

[12] = Prolonged subacute toxicity in rats; format: in vivo, rat; settings: rat, in vivo, po
Description: (§5) In a study of prolonged subacute toxicity of Miconazole in rats, among other effects, significant hepatomegalias in females with a dosage of under 30 mg/kg p.o. and in males with a dosage of under 60 mg/kg p.o. were observed.

[13] = tested on: rats; test: Chronic toxicity in rats; format: in vivo, rat; settings: even at dosage levels of 300 mg/kg
[14] = Safe dosage based on the toxicity findings; settings: in vivo
Description: as §5
Based on these finds a safe dosage for Miconazole is about 10 mg/kg, while a safe dosage for Sertaconzole is about 150 mg/kg, i.e about 15 times higher.

[15] = tested on: cutaneous mycosis; test: Randomized double blind clinical trials, cutaneous mycosis; settings: 2 % cream (nitrate salts)
Description: (§6) Human clinical trials were performed with Sertaconazole nitrate and Miconazole nitrate acid addition salts. Randomized double blind trials were carried out with 502 patients suffering from cutaneous mycosis as confirmed by microscopic examination and microbiological culture. 247 patients were treated with 2 % Sertaconazole cream and the remaining 255 patients were treated with 2 % Miconazole cream. All patients received scheduled treatment for 28 days and were followed up for an additional 28 days for possible relapses.

[16] = tested on: Trichophyton rubrum; test: Randomized double blind clinical trials, Trichophyton rubrum infection; format: in vivo, human; settings: 2 % cream (nitrate salts), 28 days treatment
Description: as §6

[17] = Comparison of acute toxicity of Sertaconazole and Miconazole (Table IV); format: in vivo
Description: as §4

[18] = tested on: Swiss mice; settings: mouse, in vivo
Description: Such signs included convulsions and Straub tail(vertical righting of the tail).

Question: Which results are given for `Clc1ccc(C(Cn2ccnc2)OCc2csc3c(Cl)cccc23)c(Cl)c1` (stereo not drawn) [Sertaconazole]?
Answer: MIC ([1]; Candida albicans, 52 strains, read-out: Minimum Inhibitory Concentration): 6 µg/mL (≈ 13.7 µM); increase of activity in comparison to Miconazole ([1]; in vitro): 43.9%; MIC ([2]; Candida, 15 strains, read-out: Minimum Inhibitory Concentration): 0.5 µg/mL (≈ 1.14 µM); increase of activity in comparison to Miconazole ([2]; in vitro): 47.4%; Minimum Inhibitory Concentration [3]: 25/8; MIC [4]: 0.4 µg/mL (≈ 0.914 µM); MIC [5]: 2.8 µg/mL (≈ 6.4 µM); MIC [6]: 2.5 µg/mL (≈ 5.71 µM); MIC ([7]; Scopulariopsis, 4 strains, read-out: Minimum Inhibitory Concentration): 8 µg/mL (≈ 18.3 µM); increase of activity in comparison to Miconazole ([7]; in vitro): 75%; MIC [8]: 0.97 µg/mL (≈ 2.22 µM); % microbiological healing ([9]; 18 days postinfection): 56%; Negative Cultures to Total Cultures ([9]; 18 days postinfection): 27/48; % microbiological healing ([9]; 25 days postinfection): 75%; Negative Cultures to Total Cultures ([9]; 25 days postinfection): 36/48; % microbiological healing ([9]; 32 days postinfection): 84%; Negative Cultures to Total Cultures ([9]; 32 days postinfection): 40/48; activity higher than Miconazole ([9]; 18th day postinfection): 9 times; activity higher than Miconazole ([9]; 25th day postinfection): 2.7 times; activity higher than Miconazole ([9]; 32nd day postinfection): 1.9 times; LD50 ([10]; ip, intraperitoneal): > 8000 mg/kg; LD50 ([10]; oral): > 8000 mg/kg; LD50 ([10]; sc, subcutaneous): > 8000 mg/kg; LD50 ([11]; ip, intraperitoneal): > 8000 mg/kg; LD50 ([11]; oral): > 8000 mg/kg; LD50 ([11]; sc, subcutaneous): > 8000 mg/kg; NOAEL [12]: ≥ 300 mg/kg; mortality [13]: no mortality was observed; safe dosage higher than that of Miconazole [14]: about 15 times; NOAEL ([14]; rat): ~150 mg/kg; side effects (contact dermatitis) [15]: no such side effects; more effective than Miconazole ([15]; 28 days treatment): 20.8%; effectiveness against Trichophyton rubrum [16]: 100%; acute toxicity relative to Miconazole ([17]; oral and intraperitoneal routes): an order of magnitude less toxic; acute toxicity relative to Miconazole ([17]; subcutaneous): significantly less; less toxic than Martin Compound 1 [18]: 8-15 times; signs of intoxication in the central nervous system (convulsions and Straub tail) [18]: not observed; LD0 ([18]; ip): 4000 mg/kg; LD50 ([18]; ip): 8000 mg/kg
